Measurements from the supplement of paper PMC11061612.

How the values were obtained:
GAK (Melanoma) = assay: Bliss excess, mean over the matrix (fraction); higher = more synergy
Procedure, shortened: (§1)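 Cell lines in DMEM/F12 or RPMI with 10% FBS were plated in 1536-well plates, held 24 hours at 37°C, 5% CO2, then given two-drug dose matrices for 72 hours (DMSO typically 0.2%). Viability was read by CellTiter-Glo 2.0 luminescence and scaled as inhibition from 0 (vehicle wells) to 1 (blank wells). Combination Emax is the second-highest inhibition in the matrix; Bliss excess is observed combination effect minus expected EA + EB − EA·EB, EA and EB being single-agent effects.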

[1] = test system: SK-CO-1 (Colorectal Carcinoma); assay: as above
Procedure, shortened: as §1

UACC-257 (Melanoma) = assay: as above
Procedure, shortened: as §1

[2] = test system: NCI-H1341 (Small Cell Lung Carcinoma); assay: as above
Procedure, shortened: as §1

[3] = test system: SNU-407 (Colorectal Carcinoma); assay: as above
Procedure, shortened: as §1

NB1 (Neuroblastoma) = assay: as above
Procedure, shortened: as §1

[4] = test system: MM1S (Plasma Cell Myeloma); assay: as above
Procedure, shortened: as §1

[5] = test system: Raji (Burkitt's Lymphoma); assay: as above
Procedure, shortened: as §1

[6] = test system: MS-1 (Small Cell Lung Carcinoma); assay: as above
Procedure, shortened: as §1

IST-MEL1 (Melanoma) = assay: as above
Procedure, shortened: as §1

[7] = test system: SNU-423 (Hepatocellular Carcinoma); assay: as above
Procedure, shortened: as §1

[8] = test system: HT-1080 (Other Solid Carcinomas); assay: as above
Procedure, shortened: as §1

[9] = test system: COR-L88 (Small Cell Lung Carcinoma); assay: as above
Procedure, shortened: as §1

[10] = test system: KP-4 (Pancreatic Carcinoma); assay: as above
Procedure, shortened: as §1

[11] = test system: IA-LM (Non-Small Cell Lung Carcinoma); assay: as above
Procedure, shortened: as §1

[12] = test system: MOLT-13 (T-Lymphoblastic Leukemia); assay: as above
Procedure, shortened: as §1

[13] = test system: SNU-407 (Colorectal Carcinoma); assay: combination Emax (second highest fraction inhibited in the dose matrix, 72 h); higher = more inhibition; extreme values may be limits of the assay
Procedure, shortened: as §1

[14] = test system: BxPC-3 (Pancreatic Carcinoma); assay: as above
Procedure, shortened: as §1

[15] = test system: NCI-H1876 (Small Cell Lung Carcinoma); assay: as above
Procedure, shortened: as §1
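For Bliss excess, mean over the matrix in this document: after 72 h of two-drug dosing.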

SMILES	Bliss excess (GAK (Melanoma))	Bliss excess [1]	Bliss excess (UACC-257 (Melanoma))	Bliss excess [2]	Bliss excess [3]	Bliss excess (NB1 (Neuroblastoma))	Bliss excess [4]	Bliss excess [5]	Bliss excess [6]	Bliss excess (IST-MEL1 (Melanoma))	Bliss excess [7]	Bliss excess [8]	Bliss excess [9]	Bliss excess [10]	Bliss excess [11]	Bliss excess [12]	combination Emax [13]	combination Emax [14]	combination Emax [15]
CC(=O)c1c(C)c2cnc(Nc3ccc(N4CCNCC4)cn3)nc2n(C2CCCC2)c1=O [Palbociclib] + Cc1c2c(nn1C)CSCc1cc(n(C)n1)CSc1cc(c3ccccc3c1)OCCCc1c(C(=O)O)n(C)c3c-2c(Cl)ccc13 [AZD5991] (first compound max 10 µM, 7x7, partner max 1 µM)	-0.0234	-0.035	-0.026	-0.031	-0.0968	-0.061	-0.0482	-0.0109	-0.0451	-0.0328	-0.0349	-0.0592	0.0122	-0.0249	-0.161	0.0478	0.621	0.301	0.534
COc1nnc2ccc(N3CCC(c4ccc(OCCN5CCN(C)C(=O)[C@H]5C)cc4)CC3)nn12 [AZD5153] + CCN(CCO)CCCOc1ccc2c(Nc3cc(CC(=O)Nc4cccc(F)c4)[nH]n3)ncnc2c1 [AZD2811] (first compound max 1 µM, 7x7, partner max 1 µM)	-0.0273	-0.0746	0.0076	0.0041	-0.0476	-0.0071	0.106	0.0314	-0.0171	-0.0196	-0.0417	0.0036	-0.0231	-0.0849	-0.103	-0.008	0.866	0.491	0.708
Cn1cnc2c(F)c(Nc3ccc(Br)cc3Cl)c(C(=O)NOCCO)cc21 [Selumetinib] + CCN(CCO)CCCOc1ccc2c(Nc3cc(CC(=O)Nc4cccc(F)c4)[nH]n3)ncnc2c1 [AZD2811] (first compound max 10 µM, 7x7, partner max 1 µM)	-0.069	-0.0098	0.0212	0.0264	-0.0522	-0.0138	0.0812	-0.0166	-0.0261	-0.0203	-0.0263	-0.0315	0.0014	0.0217	-0.0353	0.0312	0.726	0.407	0.792
Cn1cnc2c(F)c(Nc3ccc(Br)cc3Cl)c(C(=O)NOCCO)cc21 [Selumetinib] + C=CCn1c(=O)c2cnc(Nc3ccc(N4CCN(C)CC4)cc3)nc2n1-c1cccc(C(C)(C)O)n1 [AZD1775] (first compound max 10 µM, partner max 1 µM)	-0.008	-0.0579	0.0014	0.0153	0.0099	-0.0731	-0.0433	-0.041	-0.0347	0.0242	-0.0078	-0.0299	-0.011	-0.0377	-0.0017	0.0535	0.722	0.557	0.982
CC(=O)c1c(C)c2cnc(Nc3ccc(N4CCNCC4)cn3)nc2n(C2CCCC2)c1=O [Palbociclib] + CC1(C)CCC(CN2CCN(c3ccc(C(=O)NS(=O)(=O)c4ccc(NCC5CCOCC5)c([N+](=O)[O-])c4)c(Oc4cnc5[nH]ccc5c4)c3)CC2)=C(c2ccc(Cl)cc2)C1 [Venetoclax] (first compound max 10 µM, 7x7, partner max 1 µM)	-0.034	-0.122	-0.0479	0.0245	-0.01	-0.0154	0.0353	0.0634	-0.0827	0.0117	-0.034	-0.0573	-0.0764	-0.104	-0.0647	0.112	0.398	0.0941	0.224
CC(=O)c1c(C)c2cnc(Nc3ccc(N4CCNCC4)cn3)nc2n(C2CCCC2)c1=O [Palbociclib] + Cn1cnc2c(F)c(Nc3ccc(Br)cc3Cl)c(C(=O)NOCCO)cc21 [Selumetinib] (first compound max 10 µM, 7x7, partner max 10 µM)	0.0221	-0.0121	-0.0087	-0.0199	0.0615	-0.0669	-0.0061	-0.0103	-0.0601	0.052	-0.0141	-0.0519	-0.026	-0.0235	0.0126	0.193	0.654	0.414	0.312
C[C@@H](c1ccc2nccn2c1)n1nnc2ncc(-c3cnn(C)c3)nc21 [Savolitinib] + CC1(C)CCC(CN2CCN(c3ccc(C(=O)NS(=O)(=O)c4ccc(NCC5CCOCC5)c([N+](=O)[O-])c4)c(Oc4cnc5[nH]ccc5c4)c3)CC2)=C(c2ccc(Cl)cc2)C1 [Venetoclax] (first compound max 1 µM, 7x7, partner max 1 µM)	-0.0762	-0.0491	-0.0766	0.0535	-0.0299	-0.0516	-0.0663	-0.0114	-0.0098	-0.0306	-0.0205	-0.0676	-0.021	-0.0556	-0.0963	-0.0181	0.231	0.216	0.0954
C[C@@H](c1ccc2nccn2c1)n1nnc2ncc(-c3cnn(C)c3)nc21 [Savolitinib] + Cc1c2c(nn1C)CSCc1cc(n(C)n1)CSc1cc(c3ccccc3c1)OCCCc1c(C(=O)O)n(C)c3c-2c(Cl)ccc13 [AZD5991] (first compound max 1 µM, 7x7, partner max 1 µM)	0.0201	-0.037	-0.0194	0.0274	-0.0396	-0.0355	0.021	-0.0383	-0.0062	-0.0243	-0.0364	-0.0475	-0.0019	-0.0204	0.0086	-0.0368	0.666	0.136	0.32
Cn1cnc2c(F)c(Nc3ccc(Br)cc3Cl)c(C(=O)NOCCO)cc21 [Selumetinib] + C[C@@H]1COCCN1C2=NC(=NC(=C2)C3(CC3)[S@](=N)(=O)C)C4=C5C=CNC5=NC=C4 [AZD6738] (first compound max 10 µM, 7x7, partner max 10 µM)	-0.0003	-0.112	0.047	0.0757	0.1	0.0023	0.0511	-0.0273	-0.0521	-0.0217	-0.0238	0.0553	-0.0124	-0.0712	0.0061	0.106	0.758	0.494	0.895
CN(C)CCCOc1ccc(-c2ccc3ncc4c(c3c2)n(C2CCOCC2)c(=O)n4C)cn1 [AZD0156] + O=C(c1cc(Cc2n[nH]c(=O)c3ccccc23)ccc1F)N1CCN(C(=O)C2CC2)CC1 [Olaparib] (first compound max 3 µM, partner max 3 µM)	0.0131	-0.0173	-0.0055	-0.0165	-0.0122	-0.0721	0.0231	0.156	0.142	0.0034	0.0634	-0.0054	-0.193	0.0711	0.0017	0.139	0.296	0.0983	0.807
C[C@@H](c1ccc2nccn2c1)n1nnc2ncc(-c3cnn(C)c3)nc21 [Savolitinib] + CN(CC[C@H](CSC1=CC=CC=C1)NC2=C(C=C(C=C2)S(=O)(=O)NC(=O)C3=CC=C(C=C3)N4CCC(CC4)[C@H](C5=CC=CC=C5C6=CC=C(C=C6)Cl)O)S(=O)(=O)C(F)(F)F)CCO [AZD4320] (first compound max 1 µM, 7x7, partner max 1 µM)			-0.0529	0.0128	-0.319	-0.0318	-0.034	-0.0168				-0.0522				-0.0166	0.722		0.797
Cc1nc(Nc2ncc(C(=O)Nc3c(C)cccc3Cl)s2)cc(N2CCN(CCO)CC2)n1 [Dasatinib] + CC(=O)Nc1cccc(-n2c(=O)n(C3CC3)c(=O)c3c(Nc4ccc(I)cc4F)n(C)c(=O)c(C)c32)c1 [Trametinib] (first compound max 2 µM, 7x7, partner max 1 µM)	-0.0624	0.0602	-0.0926	0.105	0.0332	-0.0502	-0.0089	-0.0232	-0.0281		-0.047	0.0472	-0.0239	0.0558	0.117	0.0463	0.756	0.868	0.165
C=CCn1c(=O)c2cnc(Nc3ccc(N4CCN(C)CC4)cc3)nc2n1-c1cccc(C(C)(C)O)n1 [AZD1775] + C1CN(CCC1(C(=O)N[C@@H](CCO)C2=CC=C(C=C2)Cl)N)C3=NC=NC4=C3C=CN4 [Capivasertib] (first compound max 3 µM, partner max 3 µM)	-0.0395	-0.0603	-0.0383	-0.0538	-0.027	-0.0592	0.0171	0.0011	0.0208		-0.0333	-0.0086	-0.0949	-0.0806	-0.0348	0.0139	0.675	0.681	0.956
CC(=O)c1c(C)c2cnc(Nc3ccc(N4CCNCC4)cn3)nc2n(C2CCCC2)c1=O [Palbociclib] + CN(CC[C@H](CSC1=CC=CC=C1)NC2=C(C=C(C=C2)S(=O)(=O)NC(=O)C3=CC=C(C=C3)N4CCC(CC4)[C@H](C5=CC=CC=C5C6=CC=C(C=C6)Cl)O)S(=O)(=O)C(F)(F)F)CCO [AZD4320] (first compound max 10 µM, 7x7, partner max 1 µM)			-0.0668	-0.008	-0.0556	-0.0677	-0.0634	-0.0122				-0.121				-0.0216	0.483		0.926
COc1nnc2ccc(N3CCC(c4ccc(OCCN5CCN(C)C(=O)[C@H]5C)cc4)CC3)nn12 [AZD5153] + CN(CC[C@H](CSC1=CC=CC=C1)NC2=C(C=C(C=C2)S(=O)(=O)NC(=O)C3=CC=C(C=C3)N4CCC(CC4)[C@H](C5=CC=CC=C5C6=CC=C(C=C6)Cl)O)S(=O)(=O)C(F)(F)F)CCO [AZD4320] (first compound max 1 µM, 7x7, partner max 1 µM)			0.0654	0.0454	0.0156	0.0126	0.0694	0.0146				-0.0277				0.0376	0.902		0.977
